The text below walks through data of patent publication US9908895B2, “Tricyclic fused thiophene derivatives as JAK inhibitors” (Incyte Corporation, priority 2012, dated 2018).

What all share (type): biochemical
Experiment [1] has as its target human JAK2 (Homo sapiens (Human), UniProt O60674). Kind of experiment: In vitro JAK kinase assay (HTRF), JAK2. Conditions: 1 mM ATP. Here is the method: Compounds herein were tested for inhibitory activity of JAK targets according to the following in vitro assay described in Park et al., Analytical Biochemistry 1999, 269, 94-104. The catalytic domains of human JAK1 (a.a. 837-1142), JAK2 (a.a. 828-1132) and JAK3 (a.a. 781-1124) were expressed using baculovirus in insect cells and purified. The catalytic activity of JAK1, JAK2 or JAK3 was assayed by measuring the phosphorylation of a biotinylated peptide. The phosphorylated peptide was detected by homogenous time resolved fluorescence (HTRF). IC50s of compounds were measured for each kinase in the 40 μL reactions that contain the enzyme, ATP and 500 nM peptide in 50 mM Tris (pH 7.8) buffer with 100 mM NaCl, 5 mM DTT, and 0.1 mg/mL (0.01%) BSA. For the 1 mM IC50 measurements, ATP concentration in the reactions was 1 mM. Reactions were carried out at room temperature for 1 hour and then stopped with 20 μL 45 mM EDTA, 300 nM SA-APC, 6 nM Eu-Py20 in assay buffer (Perkin Elmer, Boston, Mass.). Binding to the Europium labeled antibody took place for 40 minutes and HTRF signal was measured on a PHERA star plate reader (BMG, Cary, N.C.). The Example compounds were each tested in the Example A assay (see Table 1 for data for the compounds of the examples as tested by the assay of Example A at 1 mM ATP).
Background: Time-resolved FRET reads energy transfer from a long-lived donor to a nearby acceptor.

Experiment [2] deals with human JAK1 (Homo sapiens, UniProt P23458). The experiment is described as follows: In vitro JAK kinase assay (HTRF), JAK1. Conditions: 1 mM ATP. Put shortly:
(§1)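 Baculovirus-expressed catalytic domains (JAK1 a.a. 837-1142, JAK2 a.a. 828-1132) phosphorylate 500 nM biotinylated peptide at 1 mM ATP, Tris pH 7.8, 1 h at room temperature. EDTA stop and HTRF detection with Eu-Py20/SA-APC; IC50 values derived.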

Experiment [3] concerns human JAK1. Kind of experiment: In vitro JAK kinase assay (HTRF), JAK1. To be noted: ratio of JAK2 IC50 to JAK1 IC50 at 1 mM ATP. Summed up:
as §1

Counter-ions that a name gives are not always drawn. Like-named read-outs stand apart in the source and are kept apart here.

The IC50 is the concentration needed to halve the response being measured.

Chain of human JAK2 (O60674 828-1132): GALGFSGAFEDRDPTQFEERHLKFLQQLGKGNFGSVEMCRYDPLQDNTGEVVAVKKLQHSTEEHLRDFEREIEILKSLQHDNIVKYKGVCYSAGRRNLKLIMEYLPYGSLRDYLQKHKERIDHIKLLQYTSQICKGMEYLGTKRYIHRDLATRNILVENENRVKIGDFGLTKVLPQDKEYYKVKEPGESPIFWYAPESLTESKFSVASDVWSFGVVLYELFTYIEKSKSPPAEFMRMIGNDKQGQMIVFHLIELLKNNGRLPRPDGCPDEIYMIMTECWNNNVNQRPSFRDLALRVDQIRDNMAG

In the case of `Cc1nc2cnc3ccsc3c2n1[C@@H]1CC[C@@H](CC#N)[C@H](O)C1.Cc1nc2cnc3ccsc3c2n1[C@H]1CC[C@H](CC#N)[C@@H](O)C1` (mixture of isomers) [41 (first peak), [(1R,2S,4S)-4-(2-Methyl-1H-imidazo[4,5-d]thieno[3,2-b]pyridin-1-yl)-2-hydroxycyclohexyl]acetonitrile and [(1S,2R,4R)-4-(2-methyl-1H-imidazo[4,5-d]thieno[3,2-b]pyridin-1-yl)-2-hydroxycyclohexyl]acetonitrile], the IC50 in experiment [1] was < 1 µM; in experiment [2] (JAK1 IC50 (nM)) it was < 100 nM. For the molecule `Cc1nc2cnc3ccsc3c2n1[C@@H]1CC[C@@H](CC#N)[C@H](O)C1.Cc1nc2cnc3ccsc3c2n1[C@H]1CC[C@H](CC#N)[C@@H](O)C1` (mixture of isomers) [41 (second peak), [(1R,2S,4S)-4-(2-Methyl-1H-imidazo[4,5-d]thieno[3,2-b]pyridin-1-yl)-2-hydroxycyclohexyl]acetonitrile and [(1S,2R,4R)-4-(2-methyl-1H-imidazo[4,5-d]thieno[3,2-b]pyridin-1-yl)-2-hydroxycyclohexyl]acetonitrile], the IC50 in experiment [2] (JAK1 IC50 (nM)) was > 2000 nM. For `Cc1nc2cnc3ccsc3c2n1[C@H]1CC[C@H](CC#N)[C@H](O)C1` (racemic) [Example 34, Mixture of [(1R,2R,4S)-2-hydroxy-4-(2-methyl-1H-imidazo[4,5-d]thieno[3,2-b]pyridin-1-yl)cyclohexyl]acetonitrile trifluoroacetate and [(1S,2S,4R)-2-hydroxy-4-(2-methyl-1H-imidazo[4,5-d]thieno[3,2-b]pyridin-1-yl)cyclohexyl]acetonitrile trifluoroacetate], the figures for the 50% inhibitory concentration (IC50) in experiment [1] and in experiment [2] (read-out: JAK1 IC50) were < 2 µM and < 1000 nM, respectively. As for `C[C@@H](O)c1nc2cnc3ccsc3c2n1C1CCNCC1F` (single isomer, unassigned) [9 (2nd peak)], the JAK2/JAK1 in experiment [3] is given as >10. Further, the IC50 in experiment [2] (read-out: JAK1 IC50) was < 1000 nM. For the molecule `C[C@@H](O)c1nc2cnc3ccsc3c2n1C1CCC(O)(CC#N)CC1` (single isomer, unassigned) [24 (second peak)], in experiment [1], the IC50 was > 2 µM. In experiment [3], the JAK2/JAK1 is >10. In the case of `N#CCc1nc2cnc3ccsc3c2n1[C@H]1CC[C@H](CC#N)CC1` [Example 90, {1-[trans-4-(Cyanomethyl)cyclohexyl]-1H-imidazo[4,5-d]thieno[3,2-b]pyridin-2-yl}acetonitrile], the JAK2/JAK1 in experiment [3] is given as >10.

As for `N#CC[C@H]1CC[C@H](n2c(CO)nc3cnc4ccsc4c32)CO1` [Example 91, {(2R,5S)-5-[2-(Hydroxymethyl)-1H-imidazo[4,5-d]thieno[3,2-b]pyridin-1-yl]tetrahydro-2H-pyran-2-yl}acetonitrile], in experiment [3], the JAK2/JAK1 was >10. Take “((1R,2R,4S)-2-Hydroxy-4-{2-[(1R)-1-hydroxyethyl]-1H-imidazo[4,5-d]thieno[3,2-b]pyridin-1-yl}cyclohexyl)acetonitrile and ((1S,2S,4R)-2-hydroxy-4-{2-[(1R)-1-hydroxyethyl]-1H-imidazo[4,5-d]thieno[3,2-b]pyridin-1-yl}cyclohexyl)acetonitrile [36 (first peak)]”: the JAK2/JAK1 in experiment [3] was >10. On the same count and under the same terms, the value for “((1R,2R,4S)-2-Hydroxy-4-{2-[(1R)-1-hydroxyethyl]-1H-imidazo[4,5-d]thieno[3,2-b]pyridin-1-yl}cyclohexyl)acetonitrile and ((1S,2S,4R)-2-hydroxy-4-{2-[(1R)-1-hydroxyethyl]-1H-imidazo[4,5-d]thieno[3,2-b]pyridin-1-yl}cyclohexyl)acetonitrile [36 (second peak)]” was >10. As for “((1R,2S,4S)-2-Hydroxy-4-{2-[(1R)-1-hydroxyethyl]-1H-imidazo[4,5-d]thieno[3,2-b]pyridin-1-yl}cyclohexyl)acetonitrile trifluoacetate and ((1S,2R,4R)-2-hydroxy-4-{2-[(1R)-1-hydroxyethyl]-1H-imidazo[4,5-d]thieno[3,2-b]pyridin-1-yl}cyclohexyl)acetonitrile trifluoacetate [37 (first peak)]”, the JAK2/JAK1 in experiment [3] is given as >10. On the same count and under the same terms, the value for “((1R,2S,4S)-2-Hydroxy-4-{2-[(1R)-1-hydroxyethyl]-1H-imidazo[4,5-d]thieno[3,2-b]pyridin-1-yl}cyclohexyl)acetonitrile trifluoacetate and ((1S,2R,4R)-2-hydroxy-4-{2-[(1R)-1-hydroxyethyl]-1H-imidazo[4,5-d]thieno[3,2-b]pyridin-1-yl}cyclohexyl)acetonitrile trifluoacetate [37 (second peak)]” was >10. Same read-out and setting: the same measure for “[(1R,2S,4S)-4-(2-Ethyl-1H-imidazo[4,5-d]thieno[3,2-b]pyridin-1-yl)-2-hydroxycyclohexyl]acetonitrile and [(1S,2R,4R)-4-(2-ethyl-1H-imidazo[4,5-d]thieno[3,2-b]pyridin-1-yl)-2-hydroxycyclohexyl]acetonitrile [40 (first peak)]”: >10.
